The source of these data is ChEMBL document CHEMBL3867476, “Novel 5-substituted 3-hydroxyphenyl and 3-nitrophenyl ethers of S-prolinol as α4β2-nicotinic acetylcholine receptor ligands” (Bioorg Med Chem Lett, 2016).

For experiment [1], the target named is Neuronal acetylcholine receptor; alpha3/beta4 (Homo sapiens, UniProt P30926+P32297). The experiment is described as follows: Displacement of [3H]-epibatine from human alpha3beta4-nACHR expressed in […] cell membranes preincubated for 5 mins followed by overnight incubation with [3H]-epibatine by liquid scintillation counting analysis.
Neuronal acetylcholine receptor; alpha3/beta4, sequence (P30926 whole entry): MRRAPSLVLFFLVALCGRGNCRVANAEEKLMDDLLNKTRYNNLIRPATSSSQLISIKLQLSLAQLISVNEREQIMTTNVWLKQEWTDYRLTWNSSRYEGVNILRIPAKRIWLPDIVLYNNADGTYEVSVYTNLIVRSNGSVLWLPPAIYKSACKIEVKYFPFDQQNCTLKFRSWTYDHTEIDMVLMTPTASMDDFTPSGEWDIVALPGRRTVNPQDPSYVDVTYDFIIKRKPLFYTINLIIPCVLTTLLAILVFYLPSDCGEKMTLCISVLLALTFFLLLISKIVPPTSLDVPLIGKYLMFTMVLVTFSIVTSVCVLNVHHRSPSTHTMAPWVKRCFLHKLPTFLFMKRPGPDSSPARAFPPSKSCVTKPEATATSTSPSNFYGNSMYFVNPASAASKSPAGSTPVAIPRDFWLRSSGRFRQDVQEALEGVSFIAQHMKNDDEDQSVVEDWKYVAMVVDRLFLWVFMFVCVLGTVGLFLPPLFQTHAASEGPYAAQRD
Neuronal acetylcholine receptor; alpha3/beta4, sequence (P32297 whole entry): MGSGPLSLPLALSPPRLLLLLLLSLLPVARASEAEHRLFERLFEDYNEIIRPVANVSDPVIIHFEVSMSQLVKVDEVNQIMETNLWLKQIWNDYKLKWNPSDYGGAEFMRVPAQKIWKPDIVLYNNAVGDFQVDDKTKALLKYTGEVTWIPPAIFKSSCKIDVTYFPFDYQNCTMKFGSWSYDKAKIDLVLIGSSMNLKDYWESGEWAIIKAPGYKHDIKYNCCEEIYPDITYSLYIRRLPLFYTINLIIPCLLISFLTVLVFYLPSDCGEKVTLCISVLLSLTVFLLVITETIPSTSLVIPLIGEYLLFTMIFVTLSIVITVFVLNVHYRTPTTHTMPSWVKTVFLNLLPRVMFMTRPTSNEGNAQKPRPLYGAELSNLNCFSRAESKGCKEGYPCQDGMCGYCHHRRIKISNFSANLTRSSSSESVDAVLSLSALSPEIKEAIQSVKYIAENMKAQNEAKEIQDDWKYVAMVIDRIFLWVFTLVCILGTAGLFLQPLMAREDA
Experiment [2] has as its system HEK243. The experiment is described as follows: Selectivity ratio of Ki for human alpha3beta4-nACHR expressed in […] cells to Ki for alpha4beta2-nACHR in rat cerebral cortex membranes. Type of experiment: cell-based.
Experiment [3] deals with T1, Neuronal acetylcholine receptor; alpha4/beta2 (Rattus norvegicus, UniProt P09483+P12390). Kind of experiment: Displacement of [3H]-epibatidine from alpha4beta2-nACHR in rat cerebral cortex membranes preincubated for 30 mins followed by overnight incubation with [3H]-epibatine. Type of experiment: cell membranes, Membrane. (Loss of bound radioactivity is the signal in a displacement assay; it reports binding, not function.)
T1 sequence (P09483 whole entry): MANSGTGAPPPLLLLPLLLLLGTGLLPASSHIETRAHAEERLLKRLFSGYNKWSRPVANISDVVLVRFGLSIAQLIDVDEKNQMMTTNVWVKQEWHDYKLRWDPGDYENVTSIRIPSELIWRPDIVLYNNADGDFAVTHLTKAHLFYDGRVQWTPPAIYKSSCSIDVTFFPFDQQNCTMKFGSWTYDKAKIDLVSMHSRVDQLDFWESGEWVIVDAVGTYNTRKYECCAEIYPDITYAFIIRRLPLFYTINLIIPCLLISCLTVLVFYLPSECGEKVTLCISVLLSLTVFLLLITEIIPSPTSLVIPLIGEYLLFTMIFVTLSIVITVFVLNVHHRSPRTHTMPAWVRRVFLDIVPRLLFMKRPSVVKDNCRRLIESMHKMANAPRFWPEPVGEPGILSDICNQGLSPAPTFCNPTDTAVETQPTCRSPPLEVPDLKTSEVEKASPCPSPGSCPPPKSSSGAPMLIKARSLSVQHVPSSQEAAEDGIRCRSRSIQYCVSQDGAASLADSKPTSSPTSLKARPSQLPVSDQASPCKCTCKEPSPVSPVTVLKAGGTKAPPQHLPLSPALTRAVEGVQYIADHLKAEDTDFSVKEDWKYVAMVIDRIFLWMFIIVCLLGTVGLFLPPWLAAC
T1 sequence (P12390 whole entry): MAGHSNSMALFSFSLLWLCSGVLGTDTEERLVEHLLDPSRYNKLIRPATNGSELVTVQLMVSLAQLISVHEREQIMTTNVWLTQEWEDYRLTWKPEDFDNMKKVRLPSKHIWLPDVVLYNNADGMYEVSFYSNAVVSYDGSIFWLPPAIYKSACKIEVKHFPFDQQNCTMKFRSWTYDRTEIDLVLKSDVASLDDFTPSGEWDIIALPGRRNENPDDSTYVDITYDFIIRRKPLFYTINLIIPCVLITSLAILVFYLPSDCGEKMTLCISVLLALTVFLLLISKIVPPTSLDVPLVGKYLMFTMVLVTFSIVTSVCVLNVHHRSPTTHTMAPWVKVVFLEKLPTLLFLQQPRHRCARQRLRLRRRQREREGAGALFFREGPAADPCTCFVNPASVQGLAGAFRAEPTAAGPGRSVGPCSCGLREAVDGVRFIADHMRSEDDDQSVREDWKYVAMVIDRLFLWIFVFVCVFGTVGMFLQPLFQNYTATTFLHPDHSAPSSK

Experiment [4] has as its target T1, Neuronal acetylcholine receptor; alpha4/beta2. The experiment is described as follows: Displacement of [3H]-cytisine from alpha4beta2-nACHR in rat whole brain membranes incubated for 60 mins. Type of experiment: cell membranes, Membrane.

The term Ki denotes a dissociation constant, usually derived from enzyme kinetics or from competition with a known ligand. Low values mean tighter binding, high ones weaker binding. Regarding `CN1CCC[C@H]1COc1cc(O)cc(-c2ccc(O)cc2)c1`, the figures for the Ki in experiment [1] and in experiment [3] were 30 nM and 3.8 nM, respectively. In addition, in experiment [2], the Ratio Ki was 8.

In the case of `CN1CCC[C@H]1COc1cccc(C#CCCCCO)c1`, the Ki in experiment [1] is 8300 nM; in experiment [3] it was 4400 nM. Besides, the Ratio Ki in experiment [2] was determined as 2.

Regarding `CN1CCC[C@H]1COc1cc(O)cc(Br)c1`, the Ki came out at 147 nM in experiment [1] and 186 nM in experiment [3]. For the same molecule, the Ratio Ki in experiment [2] turned out to be 0.8.

Take `CN1CCC[C@H]1COc1cc(C#CCCCCO)cc([N+](=O)[O-])c1`: the inhibition constant Ki is 1200 nM in experiment [1] and 14.2 nM in experiment [3]. Moreover, the Ratio Ki in experiment [2] is 85.

Regarding `CN1CCC[C@H]1COc1cc(O)cc(C#CCCCCO)c1`, the figures for the Ki in experiment [1] and in experiment [3] were 3100 nM and 23.7 nM, respectively. The Ratio Ki in experiment [2] came to 131.

Regarding `CN1CCC[C@H]1COc1cccc([N+](=O)[O-])c1`, the Ki amounted to 9 nM in experiment [4], 946 nM in experiment [1] and 31.2 nM in experiment [3]. In addition, in experiment [2], the Ratio Ki came out at 30.

`CN1CCC[C@H]1COc1cc(-c2ccccc2)cc([N+](=O)[O-])c1`: the Ki in experiment [1] was determined as 947 nM; in experiment [3], 330 nM. In experiment [2], the Ratio Ki stood at 3.

Regarding `CN1CCC[C@H]1COc1cc(Br)cc([N+](=O)[O-])c1`, the Ki in experiment [1] was 415 nM; in experiment [3], 55 nM. In experiment [2], the Ratio Ki was determined as 8.

As to `CN1CCC[C@H]1COc1cc(O)cc(-c2ccccc2)c1`, the Ki in experiment [1] was determined as 200 nM; in experiment [3] it was 528 nM. Also, in experiment [2], the Ratio Ki was 0.4.

On to `COc1cccc(OC[C@@H]2CCCN2C)c1`, for which the Ki is 4500 nM in experiment [1] and 600 nM in experiment [3]. In addition, in experiment [2], the Ratio Ki turned out to be 7.

As for `CN1CCC[C@H]1COc1cc(-c2ccc(O)cc2)cc([N+](=O)[O-])c1`, the Ki is 122 nM in experiment [1] and 12 nM in experiment [3]. Moreover, the Ratio Ki in experiment [2] stood at 10.
